Source: US20260325533A1, “CDK INHIBITOR COMPOUNDS” (ALEKSIA THERAPEUTICS, INC., priority 2023, published 2026)
Where two headings read alike, the source gives them in different places.

How the values were obtained:
Format in all cases: biochemical
CDK6/CCND1 = CDK6/CCND1 (Homo sapiens, UniProt Q00534); assay: CDK6 homogeneous time-resolved fluorescence (HTRF) kinase assay; settings: CDK6/CCND
Outline: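 Assay conditions: HEPES buffer containing 10 mM MgCl2, 1 mM EGTA, 2 mM DTT, 0.01% Tween 20; 1 nM CDK6/CCND1, 50 nM peptide substrate, 1 mM ATP. Detection after 60 min reaction used 2 nM europium antibody with 340 nm excitation. Potency fitted from half-log series, 11 points.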

CDK1/CCNB1 = CDK1/CCNB1 (Homo sapiens, UniProt P06493); assay: CDK1 homogeneous time-resolved fluorescence (HTRF) kinase assay; settings: CDK1/CCNB
Outline: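 HTRF assay with 0.5 nM CDK1/CCNB1, 1 mM ATP, 50 nM ULight-eIF4E-BP1 (Thr37/46) peptide; compound preincubated 20 min, reaction 60 min at 23 °C, EDTA stop, Eu-anti-phospho antibody detection. 11-point half-log titration from 10 μM, 1% DMSO; IC50 from 665 nm or 665/615 signal.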

CDK4/CCND3 = CDK4/CCND3 (Homo sapiens, UniProt P11802); assay: CDK4 homogeneous time-resolved fluorescence (HTRF) kinase assay; settings: CDK4/CCND
Outline: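 TR-FRET read (665 nm, or 665/615 ratio) of 4E-BP1 Thr37/46 phosphorylation by 1.5 nM CDK4/CCND3 at 1 mM ATP, 50 nM ULight peptide, 1% DMSO. Reaction ran 60 min at 23 °C after 20 min compound–enzyme preincubation. IC50 from 11-point half-log dilutions, top 10 μM.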

CDK2/CCNE1 = CDK2/CCNE1 (Homo sapiens, UniProt P24941); assay: CDK2 homogeneous time-resolved fluorescence (HTRF) kinase assay; settings: CDK2/CCNE
Outline: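 TR-FRET read-out (665 nm, or 665/615 ratio) of Eu-antibody detection of phospho-4E-BP1 (Thr37/46) ULight peptide. Enzyme 3 nM, ATP 1 mM, peptide 50 nM, 1% DMSO; 60 min reaction at 23 °C after 20 min compound preincubation. IC50 from 11-point half-log titrations, top typically 10 μM.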

[1] = >250 nM marked x, read-out: CDK6/CCND IC50 >250 nM
[2] = >250 nM marked x, read-out: CDK1/CCNB IC50 >250 nM
[3] = >250 nM marked x, read-out: CDK4/CCND IC50 >250 nM
[4] = >250 nM marked x, read-out: CDK2/CCNE IC50 >250 nM
[5] = 25-250 nM marked x, read-out: CDK2/CCNE IC50 25-250 nM
[6] = <25 nM, read-out: CDK2/CCNE IC50 <25 nM
[7] = 25-250 nM marked x, read-out: CDK1/CCNB IC50 25-250 nM
[8] = 25-250 nM marked x, read-out: CDK4/CCND IC50 25-250 nM

Chain of CDK6/CCND1 (Q00534 whole entry): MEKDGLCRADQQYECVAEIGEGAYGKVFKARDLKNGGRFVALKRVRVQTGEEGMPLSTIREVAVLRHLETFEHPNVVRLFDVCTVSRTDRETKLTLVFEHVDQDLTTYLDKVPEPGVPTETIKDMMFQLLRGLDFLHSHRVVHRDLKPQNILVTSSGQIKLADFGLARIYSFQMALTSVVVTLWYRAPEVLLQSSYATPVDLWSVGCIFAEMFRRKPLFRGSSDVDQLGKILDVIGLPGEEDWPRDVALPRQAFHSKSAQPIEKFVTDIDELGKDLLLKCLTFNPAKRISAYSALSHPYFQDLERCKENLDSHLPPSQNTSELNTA
Chain of CDK6/CCND1 (P24385 whole entry partner): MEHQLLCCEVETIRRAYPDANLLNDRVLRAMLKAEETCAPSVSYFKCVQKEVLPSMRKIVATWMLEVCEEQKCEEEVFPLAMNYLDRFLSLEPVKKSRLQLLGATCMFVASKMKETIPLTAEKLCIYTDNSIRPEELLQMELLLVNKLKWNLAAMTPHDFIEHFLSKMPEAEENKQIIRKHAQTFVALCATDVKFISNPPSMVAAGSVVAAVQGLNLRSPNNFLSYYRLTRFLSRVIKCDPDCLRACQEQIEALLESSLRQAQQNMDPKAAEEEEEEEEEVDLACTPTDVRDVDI
Chain of CDK1/CCNB1 (P06493 whole entry): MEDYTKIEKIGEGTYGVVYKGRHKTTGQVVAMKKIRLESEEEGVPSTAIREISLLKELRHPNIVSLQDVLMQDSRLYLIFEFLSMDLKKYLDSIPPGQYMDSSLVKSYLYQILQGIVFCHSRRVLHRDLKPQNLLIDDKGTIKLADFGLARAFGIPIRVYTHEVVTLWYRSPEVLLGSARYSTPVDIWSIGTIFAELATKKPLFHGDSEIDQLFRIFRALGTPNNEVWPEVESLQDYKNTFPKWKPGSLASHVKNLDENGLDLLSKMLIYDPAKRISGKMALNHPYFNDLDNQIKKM
Chain of CDK1/CCNB1 (P14635 whole entry partner): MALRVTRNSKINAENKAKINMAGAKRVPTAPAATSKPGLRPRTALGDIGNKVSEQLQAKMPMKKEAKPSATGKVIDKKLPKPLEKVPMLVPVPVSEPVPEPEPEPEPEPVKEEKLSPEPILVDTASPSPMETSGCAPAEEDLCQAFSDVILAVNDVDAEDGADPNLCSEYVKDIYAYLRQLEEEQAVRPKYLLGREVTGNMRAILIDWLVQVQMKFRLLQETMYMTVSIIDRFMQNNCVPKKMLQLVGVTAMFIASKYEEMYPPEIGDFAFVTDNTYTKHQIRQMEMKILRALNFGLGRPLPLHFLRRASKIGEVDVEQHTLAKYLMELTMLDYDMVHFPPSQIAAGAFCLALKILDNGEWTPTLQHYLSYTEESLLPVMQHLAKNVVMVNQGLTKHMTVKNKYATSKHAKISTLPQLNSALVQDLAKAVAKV
Chain of CDK4/CCND3 (P11802 whole entry): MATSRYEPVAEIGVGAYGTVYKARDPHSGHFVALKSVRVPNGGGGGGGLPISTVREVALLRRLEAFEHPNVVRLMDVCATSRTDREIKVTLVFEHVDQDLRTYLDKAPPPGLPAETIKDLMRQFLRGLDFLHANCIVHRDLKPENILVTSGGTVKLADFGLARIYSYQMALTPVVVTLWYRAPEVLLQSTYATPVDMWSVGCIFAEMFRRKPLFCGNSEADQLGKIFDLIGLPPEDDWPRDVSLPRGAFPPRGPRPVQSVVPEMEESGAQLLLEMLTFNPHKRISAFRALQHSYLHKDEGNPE
Chain of CDK4/CCND3 (P30281 whole entry partner): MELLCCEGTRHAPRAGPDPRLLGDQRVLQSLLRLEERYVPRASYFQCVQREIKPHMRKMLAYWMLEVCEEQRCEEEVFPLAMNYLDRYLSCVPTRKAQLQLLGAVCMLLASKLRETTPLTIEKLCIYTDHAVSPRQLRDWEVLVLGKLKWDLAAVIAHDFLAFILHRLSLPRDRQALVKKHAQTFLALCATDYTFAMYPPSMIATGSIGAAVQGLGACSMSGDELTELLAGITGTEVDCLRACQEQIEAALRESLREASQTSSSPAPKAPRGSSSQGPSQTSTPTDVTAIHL

IC50 (CDK6/CCND1; [1]) [nM] | IC50 (CDK1/CCNB1; [2]) [nM] | IC50 (CDK4/CCND3; [3]) [nM] | IC50 (CDK2/CCNE1; [4]) [nM] | IC50 (CDK2/CCNE1; [5]) [nM] | IC50 (CDK2/CCNE1; [6]) [nM] | IC50 (CDK6/CCND1; 25-250 nM marked x, read-out: CDK6/CCND IC50 25-250 nM) [nM] | IC50 (CDK1/CCNB1; [7]) [nM] | IC50 (CDK4/CCND3; [8]) [nM] | SMILES
– | – | – | – | – | < 25 | 25 to 250 | 25 to 250 | 25 to 250 | N=S(=O)(c1ccc(Nc2cc3c(C#Cc4ccc5c(c4)NC(=O)C54CC4)nccc3cn2)cc1)C1CC1 (single isomer, unassigned) [Ex 306, 6'-((7-((4-(cyclopropanesulfonimidoyl)phenyl)amino)-2,6-naphthyridin-1-yl)ethynyl)spiro[cyclopropane-1,3'-indolin]-2'-one]
> 250 | > 250 | > 250 | – | 25 to 250 | – | – | – | – | CCC1(CC)C(=O)Nc2cc(C#Cc3nccc4cnc(Nc5ccc(S(=N)(=O)CC)cc5OC)cc34)ccc21 (single isomer, unassigned) [Ex 308, 3,3-diethyl-6-((7-((4-(ethylsulfonimidoyl)-2-methoxyphenyl)amino)-2,6-naphthyridin-1-yl)ethynyl)indolin-2-one]
> 250 | > 250 | > 250 | – | – | < 25 | – | – | – | CCS(=N)(=O)c1ccc(Nc2cc3c(C#Cc4ccc5c(c4)NC(=O)C54CCC4)nccc3cn2)c(OC)c1 (single isomer, unassigned) [Ex 310, 6'-((7-((4-(ethylsulfonimidoyl)-2-methoxyphenyl)amino)-2,6-naphthyridin-1-yl)ethynyl)spiro[cyclobutane-1,3'-indolin]-2'-one]
> 250 | > 250 | > 250 | – | 25 to 250 | – | – | – | – | COc1cc(S(C)(=N)=O)ccc1Nc1cc2c(C#Cc3ccc4c(c3)NC(=O)C43CCC3)nccc2cn1 (single isomer, unassigned) [Ex 313, 6'-((7-((2-methoxy-4-(S-methylsulfonimidoyl)phenyl)amino)-2,6-naphthyridin-1-yl)ethynyl)spiro[cyclobutane-1,3'-indolin]-2'-one]
> 250 | > 250 | > 250 | – | – | < 25 | – | – | – | CCC1(CC)C(=O)Nc2cc(C#Cc3nccc4cnc(Nc5ccc(S(=N)(=O)C6COC6)cc5C)cc34)ccc21 (single isomer, unassigned) [Ex 316, 3,3-diethyl-6-((7-((2-methyl-4-(oxetane-3-sulfonimidoyl)phenyl)amino)-2,6-naphthyridin-1-yl)ethynyl)indolin-2-one]
> 250 | > 250 | > 250 | – | 25 to 250 | – | – | – | – | CCC1(CC)C(=O)Nc2cc(C#Cc3nccc4cnc(Nc5ccc(S(=N)(=O)C6COC6)cc5OC)cc34)ccc21 (single isomer, unassigned) [Ex 317, 3,3-diethyl-6-((7-((2-methoxy-4-(oxetane-3-sulfonimidoyl)phenyl)amino)-2,6-naphthyridin-1-yl)ethynyl)indolin-2-one]
> 250 | > 250 | > 250 | – | 25 to 250 | – | – | – | – | CCC1(CC)C(=O)Nc2cc(C#Cc3nccc4cnc(Nc5ccc(S(C)(=N)=O)cc5OC)cc34)ccc21 (single isomer, unassigned) [Ex 319, 3,3-diethyl-6-((7-((2-methoxy-4-(S-methylsulfonimidoyl)phenyl)amino)-2,6-naphthyridin-1-yl)ethynyl)indolin-2-one]
> 250 | > 250 | > 250 | – | – | < 25 | – | – | – | COc1cc(S(=N)(=O)C2COC2)ccc1Nc1cc2c(C#Cc3ccc4c(c3)NC(=O)C43CC3)nccc2cn1 (single isomer, unassigned) [Ex 323, 6'-((7-((2-methoxy-4-(oxetane-3-sulfonimidoyl)phenyl)amino)-2,6-naphthyridin-1-yl)ethynyl)spiro[cyclopropane-1,3'-indolin]-2'-one]
> 250 | – | – | – | – | < 25 | – | 25 to 250 | 25 to 250 | Cc1cc(S(C)(=N)=O)ccc1Nc1cc2c(C#Cc3ccc4c(c3)NC(=O)C43CC3)nccc2cn1 (single isomer, unassigned) [Ex 326, 6'-((7-((2-methyl-4-(S-methylsulfonimidoyl)phenyl)amino)-2,6-naphthyridin-1-yl)ethynyl)spiro[cyclopropane-1,3'-indolin]-2'-one]
> 250 | > 250 | > 250 | – | – | < 25 | – | – | – | Cc1cc(S(C)(=N)=O)ccc1Nc1cc2c(C#Cc3ccc4c(c3)NC(=O)C43CCC3)nccc2cn1 (single isomer, unassigned) [Ex 332, 6'-((7-((2-methyl-4-(S-methylsulfonimidoyl)phenyl)amino)-2,6-naphthyridin-1-yl)ethynyl)spiro[cyclobutane-1,3'-indolin]-2'-one]

More lines, now with the values behind:

SMILES | IC50 (CDK6/CCND1; [1]) [nM] | IC50 (CDK1/CCNB1; [2]) [nM] | IC50 (CDK4/CCND3; [3]) [nM] | IC50 (CDK2/CCNE1; [4]) [nM] | IC50 (CDK2/CCNE1; [5]) [nM] | IC50 (CDK2/CCNE1; [6]) [nM] | IC50 (CDK6/CCND1; 25-250 nM marked x, read-out: CDK6/CCND IC50 25-250 nM) [nM] | IC50 (CDK1/CCNB1; [7]) [nM] | IC50 (CDK4/CCND3; [8]) [nM]
CCC1(CC)C(=O)Nc2cc(C#Cc3nccc4cnc(Nc5ccc(S(=N)(=O)CC(F)(F)F)cc5OC)cc34)ccc21 (single isomer, unassigned) [Ex 281, 3,3-diethyl-6-((7-((2-methoxy-4-(2,2,2-trifluoroethylsulfonimidoyl)phenyl)amino)-2,6-naphthyridin-1-yl)ethynyl)indolin-2-one] | > 250 | > 250 | > 250 | > 250 | – | – | – | – | –
CCC1(CC)C(=O)Nc2cc(C#Cc3nccc4cnc(Nc5ccc(S(=N)(=O)CC(F)(F)F)cc5C)cc34)ccc21 (single isomer, unassigned) [Ex 284, 3,3-diethyl-6-((7-((2-methyl-4-(2,2,2-trifluoroethylsulfonimidoyl)phenyl)amino)-2,6-naphthyridin-1-yl)ethynyl)indolin-2-one] | > 250 | > 250 | > 250 | – | 25 to 250 | – | – | – | –
CCS(=N)(=O)c1ccc(Nc2cc3c(C#Cc4ccc5c(c4)NC(=O)C54CC4)nccc3cn2)c(OC)c1 (single isomer, unassigned) [Ex 289, 6'-((7-((4-(ethylsulfonimidoyl)-2-methoxyphenyl)amino)-2,6-naphthyridin-1-yl)ethynyl)spiro[cyclopropane-1,3'-indolin]-2'-one] | > 250 | > 250 | > 250 | – | – | < 25 | – | – | –
CCC1(CC)C(=O)Nc2cc(C#Cc3nccc4cnc(Nc5ccc(S(C)(=N)=O)cc5C(F)F)cc34)ccc21 (single isomer, unassigned) [Ex 294, 6-((7-((2-(difluoromethyl)-4-(S-methylsulfonimidoyl)phenyl)amino)-2,6-naphthyridin-1-yl)ethynyl)-3,3-diethylindolin-2-one] | > 250 | > 250 | > 250 | – | 25 to 250 | – | – | – | –
CCC1(CC)C(=O)Nc2cc(C#Cc3nccc4cnc(Nc5ccc(S(=N)(=O)C6CC6)cc5OC)cc34)ccc21 (single isomer, unassigned) [Ex 299, 6-((7-((4-(cyclopropanesulfonimidoyl)-2-methoxyphenyl)amino)-2,6-naphthyridin-1-yl)ethynyl)-3,3-diethylindolin-2-one] | > 250 | > 250 | > 250 | – | 25 to 250 | – | – | – | –
CCC1(CC)C(=O)Nc2cc(C#Cc3nccc4cnc(Nc5ccc(S(=N)(=O)C6CC(F)(F)C6)cc5F)cc34)ccc21 (single isomer, unassigned) [Ex 301, 6-((7-((4-(3,3-difluorocyclobutane-1-sulfonimidoyl)-2-fluorophenyl)amino)-2,6-naphthyridin-1-yl)ethynyl)-3,3-diethylindolin-2-one] | > 250 | > 250 | > 250 | > 250 | – | – | – | – | –
CCC1(CC)C(=O)Nc2cc(C#Cc3nccc4cnc(Nc5ccc(S(=N)(=O)C6CC(F)(F)C6)cc5)cc34)ccc21 (single isomer, unassigned) [Ex 303, 6-((7-((4-(3,3-difluorocyclobutane-1-sulfonimidoyl)phenyl)amino)-2,6-naphthyridin-1-yl)ethynyl)-3,3-diethylindolin-2-one] | > 250 | > 250 | > 250 | – | 25 to 250 | – | – | – | –
COc1cc(S(C)(=N)=O)ccc1Nc1cc2c(C#Cc3ccc4c(c3)NC(=O)C43CC3)nccc2cn1 (single isomer, unassigned) [Ex 305, 6'-((7-((2-methoxy-4-(S-methylsulfonimidoyl)phenyl)amino)-2,6-naphthyridin-1-yl)ethynyl)spiro[cyclopropane-1,3'-indolin]-2'-one] | > 250 | > 250 | > 250 | – | – | < 25 | – | – | –
